Experimental data reported in US11504358B2, “Extended release methazolamide formulation” (Effcon Laboratories, Inc., priority 2017, dated 2022).

Columns and labels:
[1] = in water, alcohol and acetone; cited from earlier work
[2] = Density of methazolamide particles; assay type: physicochemical
[3] = Methazolamide particle size testing, sonic shifter (sieves); assay type: physicochemical
Experimental: (§1) Methazolamide particle size testing was performed on unmilled methazolamide particles and methazolamide particles milled in-house and by a third party vendor according to the above milling procedure. Methazolamide particle size testing was conducted using a Mastersizer laser particle size analyzer from Malvern Instruments or a sonic shifter. The results of the particle size testing for methazolamide particles milled in-house, as measured by a laser particle size analyzer, are as follows:
The results of the particle size testing for unmilled methazolamide particles, methazolamide particles milled in-house, and methazolamide particles milled by a third party vendor, as measured by a sonic shifter, are as follows: […]

[4] = Methazolamide particle size testing, laser particle size analyzer; assay type: physicochemical; conditions: particles milled in-house
Experimental: The following conventions apply when describing particle size distribution. D(v, 0.1) means that 10% of the particles are smaller than this diameter. D(v, 0.5) is the median particle diameter. D(v, 0.9) means that 90% of the particles are smaller than this diameter.
as §1, with “follows: […]” for “follows:”

| Compound | Bulk Density [2] [g/mL] | Trapped Density [2] [g/mL] | % Retained, Fines Collector [3] [%] | % Retained, Sieve # 20 (840 μm) [3] [%] | % Retained, Sieve # 40 (420 μm) [3] [%] | % Retained, Sieve # 80 (177 μm) [3] [%] | % Retained, Sieve # 100 (149 μm) [3] [%] | % Retained, Sieve # 140 (105 μm) [3] [%] | % Retained, Sieve # 200 (74 μm) [3] [%] | D(v, 0.1) [4] [μm] | D(v, 0.5) [4] [μm] | D(v, 0.9) [4] [μm] | Solubility [1] |
| --- | --- | --- | --- | --- | --- | --- | --- | --- | --- | --- | --- | --- | --- |
| CC(=O)N=c1sc(S(N)(=O)=O)nn1C [Methazolamide, N-[5-(aminosulfonyl)-3-methyl-1,3,4-thiadiazol-2(3H)-ylidene]acetamide] |  |  |  |  |  |  |  |  |  |  |  |  | slightly soluble |
| CC(=O)/N=c1/sc(S(N)(=O)=O)nn1C [Milled API (3rd party)] | 0.53 | 1.00 | 15.56 | 5.15 | 6.14 | 21.88 | 17.14 | 21.90 | 12.29 |  |  |  |  |
| CC(=O)/N=c1/sc(S(N)(=O)=O)nn1C [Milled API (in-house)] | 0.56 | 0.99 | 16.51 | 1.23 | 1.52 | 15.27 | 19.54 | 32.92 | 13.00 |  |  |  |  |
| CC(=O)/N=c1/sc(S(N)(=O)=O)nn1C [Sample 1] |  |  |  |  |  |  |  |  |  | 42.15 | 121.45 | 255.75 |  |

The next lines start with results.

| Bulk Density [2] [g/mL] | Trapped Density [2] [g/mL] | % Retained, Fines Collector [3] [%] | % Retained, Sieve # 20 (840 μm) [3] [%] | % Retained, Sieve # 40 (420 μm) [3] [%] | % Retained, Sieve # 80 (177 μm) [3] [%] | % Retained, Sieve # 100 (149 μm) [3] [%] | % Retained, Sieve # 140 (105 μm) [3] [%] | % Retained, Sieve # 200 (74 μm) [3] [%] | D(v, 0.1) [4] [μm] | D(v, 0.5) [4] [μm] | D(v, 0.9) [4] [μm] | Compound | Solubility [1] |
| --- | --- | --- | --- | --- | --- | --- | --- | --- | --- | --- | --- | --- | --- |
|  |  |  |  |  |  |  |  |  | 47.67 | 132.34 | 269.30 | CC(=O)/N=c1/sc(S(N)(=O)=O)nn1C [Sample 2] |  |
|  |  |  |  |  |  |  |  |  | 48.42 | 128.46 | 267.26 | CC(=O)/N=c1/sc(S(N)(=O)=O)nn1C [Sample 3] |  |
| 0.92 | 1.03 | 0.83 | 0.09 | 7.95 | 75.05 | 8.04 | 6.01 | 2.03 |  |  |  | CC(=O)/N=c1/sc(S(N)(=O)=O)nn1C [Unmilled API] |  |
